The values that follow come from patent US6153611A, “Piperazinyl-cyclohexanes and cyclohexenes” (Bristol-Myers Squibb Company, priority 1993, dated 2000).

Each structure is given as a SMILES string. Where two headings read alike, the source gives them in different places. Bounds are passed on as bounds.

For orientation: IC50 means the concentration at which inhibition is half-maximal.

The target of one assay is T1, sigma receptor (Cavia porcellus, UniProt Q60492).
T1 construct: from tissue
The assay is described as follows: Sigma binding (method of Tam and Cook). As for the experimental part:
In vitro IC50 test values for binding to the sigma receptor were determined for representative compounds of Formula I by the method of Tam and Cook [see: Tam, S. W., and Cook, L: Proc. Natl. Acad. Sci. USA 81, 5618-5621 (1984)] with only minor modifications. Test IC50 values lower than 100 nM are considered to reflect activity at the sigma receptor.

For the next assay, the target named is T2, Dopamine D2 (Rattus norvegicus, UniProt P61169).
T2 construct: The corpus striatum was crudely dissected and frozen on dry ice; from tissue; host or cells: rat corpus striatum membranes (male Sprague-Dawley rats, Charles River)
T2 sequence (P61169 whole entry): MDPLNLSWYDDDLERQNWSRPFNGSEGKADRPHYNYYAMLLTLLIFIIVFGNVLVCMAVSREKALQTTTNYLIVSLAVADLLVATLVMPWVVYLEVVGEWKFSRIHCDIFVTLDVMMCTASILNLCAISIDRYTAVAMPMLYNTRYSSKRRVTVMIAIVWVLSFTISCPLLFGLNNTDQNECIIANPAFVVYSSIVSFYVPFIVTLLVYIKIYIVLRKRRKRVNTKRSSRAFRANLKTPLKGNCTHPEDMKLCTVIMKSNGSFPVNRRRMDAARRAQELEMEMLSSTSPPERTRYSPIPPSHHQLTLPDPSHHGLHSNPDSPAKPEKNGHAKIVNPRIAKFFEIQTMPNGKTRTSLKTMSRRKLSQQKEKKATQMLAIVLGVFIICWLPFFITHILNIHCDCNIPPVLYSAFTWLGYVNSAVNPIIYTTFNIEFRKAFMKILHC
Kind of assay: Dopamine D2 Binding Assay ([3H]Spiperone, corpus striatum membranes). More on the design: species or system male Sprague-Dawley rats. To be noted: [3H]Spiperone 0.1 nM, 37° C., 15 min. The method, then:
Activity at D2 sites is measured using the screening process set out in Example 67.
Dopamine D2 Binding Assay
Dopamine D2 affinity was determined according to the procedures of Burt, Creese and Snyder [Molecular Pharmacology 12,800 (1976); Science 196, 326 (1977); Science 192, 481 (1976)]. Briefly, male Sprague-Dawley rats (Charles River) were decapitated, brains rapidly removed and chilled in ice-cold 50 mM Hepes/KOH buffer (pH 7.4, 20° C.). The corpus striatum was crudely dissected and frozen on dry ice. Tissue was pooled and stored at -80° C. until use. On the day of assay, tissue was thawed in 20 ml ice-cold Hepes/KOH buffer, and homogenized with a polytron for 15 sec at 18,000 rpm. The homogenate was centrifuged (39,000×g, 10 min, at 4° C.). The supernatant was discarded and the pellet rehomogenized in ice-cold Hepes/KOH buffer and recentrifuged as described previously. The supernatant was again discarded and the pellet resuspended (1:100) in ice-cold Hepes/KOH buffer (pH 7.4, 20° C., containing 120 mM NaCl, 5 mM KCl, 1 mM MgCl2, 0.1% (w/v) ascorbic acid, and 10 μM pargylline, and stored on ice until assay. The binding assay (1 ml total volume) was performed in duplicate and initiated by the addition of 800 μl membrane homogenate to tubes containing 100 μl [^3 H]Spiperone (0.1 nM final concentration), and 100 μl competitor, buffer, or butaclamol, which was used to define the non-specific binding. The assay was incubated at 37° C. for 15 min, afterwhich the assay was terminated by rapid filtration.
In vitro IC50 test values for binding to the D2 receptor were determined for representative compounds of Formula I by the method of Burt, Creese, and Snyder, Molecular Pharmacology 12, 800 (1976); Creese, Burt, and Snyder, Science 196, 326 (1977); and Creese, Burt and Snyder, Science 192, 481 (1976). Test IC50 values greater than 1,000 nM are considered to reflect inactivity at the D2 receptor, indicating the risk of extrapyramidal side effects is small.

The subject of the next assay is brain ischemia. The assay is described as follows: Anoxic Nitrogen Test in Rats. It counts as in vivo, male Sprague-Dawley rats. To be noted: Rattus norvegicus, sc, subcutaneously, 2 hr survival, read-out: Nitrogen Anoxia % Survival. The text has this: Most specifically, administration of the compounds of Formula I results in protection against hypoxia-induced death in an anoxic nitrogen test in rats (Example 66). The test identifies the neuro-protective effects of substances against lethal brain damages produced by a lack of oxygen consumption (anoxia). In this test procedure, control animals exposed for one minute to a pure nitrogen atmosphere will expire because of respiratory failure caused by irreversible damage to the brain respiratory center.
Anoxic Nitrogen Test in Rats
The animals utilized are male Sprague-Dawley rats (200-400 grams) housed four animals per cage in a normal controlled environment with unlimited access to food and water. Usually there are 8 animals per dose, however, […] can be employed to obtain an initial impression of a compound's activity. Animals are parenterally or orally administered the vehicle or test compound 30 minutes before the anoxic insult. The anoxic episode consists of placing up to 8 animals in the sealed test chamber (10" l×10" w×6" h) continuously flushed with pure N2 (4.5 grade) at a flow rate of 5 SCFM for 1 min. Animals are then promptly removed to normal atmosphere and observed for the 2 hour period. Typically, animals become disoriented within 15 sec after which they remain motionless.
Even though the heart is still beating after the N2 exposure, all control animals fail to gasp when removed from the chamber and usually expire within 3 minutes. Drug treated animals, however, still gasp or start gasping after being removed, which is a good indication that the animals will survive the N2 exposure [see Wauquire, A., et al: Arch. Int. Pharmacodyn., 249, 330-334 (1981); Wauquier, A., et al: Drug Dev. Res., 8, 373-380 (1986)]. Results are recorded as:
(Number of animals surviving (2 hr))/(Number of animals tested)×100%
The anoxic nitrogen test is an in vivo model of brain ischemia in rats [see: Wauquire, A., et al: Arch. Int. Pharmacodyn., 249, 330-334 (1981); Wauquier, A., et al: Drug Dev. Res., 8, 373-380 (1986)]. Compounds of the present invention are active in this in vivo model of brain ischemia when given subcutaneously in the doses indicated in Table 2, thus providing additional evidence that the present compounds will be useful in the treatment of brain ischemia.

T1 sequence (Q60492 whole entry): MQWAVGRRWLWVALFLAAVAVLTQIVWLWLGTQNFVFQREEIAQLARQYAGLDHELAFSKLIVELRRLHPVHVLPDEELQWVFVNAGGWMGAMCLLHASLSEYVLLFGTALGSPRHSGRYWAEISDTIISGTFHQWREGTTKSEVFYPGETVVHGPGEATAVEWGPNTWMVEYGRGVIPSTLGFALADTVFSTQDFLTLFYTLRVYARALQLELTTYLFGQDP

As for `C1=C(c2nc3ccccc3s2)CCC(N2CCN(Cc3ccccc3)CC2)C1` (stereo not drawn) [Example 38, 1-[4-(2-Benzothiazolyl)-3-cyclohexen-1-yl]-4-(phenylmethyl)piperazine], the values for the IC50 at sigma receptor and at Dopamine D2 were 3.9 nM and 10000 to 50000 nM, respectively. Also, the responders at 80 mg/kg with brain ischemia (80 mg/kg) came to 100%.

As for `COc1cccc(CN2CCN(C3CC=C(c4ccc(F)cc4)CC3)CC2)c1` (stereo not drawn) [Example 60, 1-[(4-Fluorophenyl)-3-cyclohexen-1-yl]-4-[(3-methoxyphenyl)methyl]piperazine], the IC50 at sigma receptor is 5.2 nM; at Dopamine D2, 1000 to 10000 nM. For the same molecule, the responders at 10 mg/kg in the assay on brain ischemia (10 mg/kg) is 50%.

Turning to `Fc1ccc2[nH]cc(C3=CCC(N4CCN(Cc5ccccc5)CC4)CC3)c2c1` (stereo not drawn) [Example 49, 5-Fluoro-3-{4-[4-(phenylmethyl)-1-piperazinyl]-1-cyclohexen-1-yl]-1H-indole], the values for the concentration for half-maximal inhibition (IC50) on sigma receptor and on Dopamine D2 were 8.6 nM and 1000 to 10000 nM, respectively. For the same molecule, the responders at 10 mg/kg with brain ischemia (10 & 60 mg/kg) amounted to 92%.

Take `Fc1ccc(C2=CCC(N3CCN(Cc4ccccc4)CC3)CC2)cc1` (stereo not drawn) [Example 35, 1-[4-(4-Fluorophenyl)-3-cyclohexen-1-yl]-4-(phenylmethyl)-piperazine]: the 50% inhibitory concentration (IC50) on sigma receptor was 1.9 nM; at Dopamine D2 it was 50000 to 100000 nM. Also, the responders at 15 mg/kg in the assay with brain ischemia (15 & 20 mg/kg) was 100%.

Consider `COc1cccc(CC2CCN(C3CC=C(c4ccc5c(c4)OCO5)CC3)CC2)c1` (stereo not drawn) [Example 52, 1-[4-(1,3-Benzodioxol-5-yl)-3-cyclohexen-1-yl]-4-[(3-methoxyphenyl)methyl]piperidine], for which the IC50 at sigma receptor is 7.4 nM; on Dopamine D2, 1000 to 10000 nM. Besides, the responders at 10 mg/kg in the assay with brain ischemia (10 mg/kg) came out at 38%.

Turning to `COc1ccc(C2=CCC(N3CCN(Cc4ccccc4)CC3)CC2)cc1` (stereo not drawn) [Example 39, 1-[4-(4-Methoxyphenyl)-3-cyclohexen-1-yl]-4-(phenylmethyl)piperazine], the half-inhibitory concentration (IC50) at sigma receptor is 0.9 nM; on Dopamine D2, 1000 to 10000 nM. For the same molecule, the responders at 20 mg/kg in the assay with brain ischemia (20 & 30 mg/kg) worked out at 92%.

On to `Fc1ccc([C@H]2CC[C@H](N3CCN(Cc4ccccc4)CC3)CC2)cc1` [Example 63, Trans 1-[4-(4-fluorophenyl)-1-cyclohexyl]-4-(phenylmethyl)piperazine], for which the concentration for half-maximal inhibition (IC50) at sigma receptor is 0.7 nM; on Dopamine D2, 1000 to 10000 nM. Besides, the responders at 20 mg/kg with brain ischemia (20 & 40 mg/kg) was found to be 75%.

With `COc1cccc(CN2CCN([C@H]3CC[C@H](c4ccc(F)cc4)CC3)CC2)c1` [Example 65, Trans 1-[4-(4-fluorophenyl)-1-cyclohexyl]-4-[(3-methoxyphenyl)methyl]piperazine], the IC50 on sigma receptor was 3.2 nM; on Dopamine D2, 1000 to 10000 nM. In addition, the responders at 10 mg/kg in the assay on brain ischemia (10 mg/kg) is 62%.

With `Fc1ccc([C@H]2CC[C@@H](N3CCN(Cc4ccccc4)CC3)CC2)c2ccccc12` [Example 62-cis, Cis and trans 1-[4-(4-fluoro-1-naphthalenyl)-1-cyclohexyl]-4-(phenylmethyl)piperazine], the figures for the half-inhibitory concentration (IC50) on sigma receptor and at Dopamine D2 were 6.9 nM and above 100000 nM, respectively. In addition, the responders at 40 mg/kg in the assay on brain ischemia (40 mg/kg) worked out at 63%.

As to `Fc1ccc(CN2CCN(C3CC=C(c4ccc(C(F)(F)F)cc4)CC3)CC2)cc1` (stereo not drawn) [Example 42, 1-[(4-Fluorophenyl)methyl]-4-[4-[4-(trifluoromethyl)phenyl]-3-cyclohexen-1-yl]piperazine], the figures for the IC50 on sigma receptor and at Dopamine D2 were 6.9 nM and above 100000 nM, respectively. In addition, the responders at 20 mg/kg in the assay on brain ischemia (20 mg/kg) was 100%.

Take `Fc1ccc(F)c(CC2CCN(C3CC=C(c4ccc5c(c4)OCO5)CC3)CC2)c1` (stereo not drawn) [Example 54, 1-[4-(1,3-Benzodioxol-5-yl)-3-cyclohexen-1-yl]-4-[(2,5-difluorophenyl)methyl]piperidine]: the IC50 at sigma receptor is 3.6 nM; on Dopamine D2, 1000 to 10000 nM. In addition, the responders at 10 mg/kg with brain ischemia (10 mg/kg) amounted to 38%.
